Measured values published in patent US20120177742A1, “NANOPARTICLE AND SURFACE-MODIFIED PARTICULATE COATINGS, COATED BALLOONS, AND METHODS THEREFORE” (MICELL TECHNOLOGIES, INC., priority 2010, published 2012).
Several values for one entry are separate records, joined by “and”; a condition that tells them apart may be missing. Equal entries are not always repeated. Where two headings read alike, the source gives them in different places. Marks after values point to notes of the source that are not given here.

Columns and labels:
[1] = Rapamycin coating affinity testing: distribution between solid and liquid phases with surfactant in water (UV-Vis); format: physicochemical; details: for Cal. Rapa (Sediment) / Cal. Rapa (Supernate): calculated from UV-Vis absorbance; for Cal. Rapa (Sediment): in mg (unit assumed); for Cal. Rapa (Supernate): unit assumed; for total (% original) / total (% of original): percent recovery of initial rapamycin loading
Source text: One method of applying a positive surface charge to the coating is to add DMAB to the coating such that it is on its surface, at least. […] The coating is then sintered according to the RESS process. […] Care should be taken in certain embodiments to optimize the DMAB's application to the balloon and to handle the balloon thereafter to keep the DMAB from washing off. […] The initial mass of rapamycin is shown in the column labeled “Original rapa.” The supernatant (liquid phase) contains the material of interest as it is drug particles coated with the surfactant modifier. The values presented in the columns labeled “Cal. Rapa” are calculated from the UV-Vis absorbance spectrum of the sediment or supernatant respectively. The ratio of these two values determined the partition coefficient between the sediment and supernatant (reported in the column labeled “ratio”).
The initial mass of rapamycin is shown in the column labeled “Original rapa.” The supernatant (liquid phase) contains the material of interest as it is drug particles coated with the surfactant modifier. The values presented in the columns labeled “Cal. Rapa” are calculated from the UV-Vis absorbance spectrum of the sediment or supernatant respectively. The ratio of these two values determined the partition coefficient between the sediment and supernatant (reported in the column labeled “ratio”).

in vivo = details: rabbit, iliac artery wall, other: coated balloon catheter deployed in iliac arteries
Method: The coated balloons were sterilized and then used in a rabbit animal study. The balloons were deployed at the target sites (iliac arteries) in the rabbits in the study, two balloons per animal. […] The amount of drug per tissue was determined using a LC-MS test method. Liquid chromatography-mass spectrometry (LC-MS) was used to determine the amount of drug per tissue. Prior to LC-MS, artery samples were homogenized using an Omni hand held probe (1:99 w:v in 80:20 MeOH:2 mM Ammonium Acetate in water with 0.1% Formic Acid). The density of the artery was assumed to be 1 g/mL
Balloons were inflated for a minimum of one minute. […] The estimated time the artery was exposed to blood flow was also tracked, and refers to the amount of time after the balloon was inflated.

[2] = Study 1 balloons left uninflated in rabbit aorta, exposed to blood flow: drug lost
[3] = Sirolimus concentration in rabbit blood after inflation of two coated balloons per animal; format: in vivo
Method: After a 2d balloon inflation, blood samples were taken at the given time points (0 h, 6 h, 24 h).

[4] = 1:1 Surfactant to Rapa (w/w), 10x dilution in water
[5] = 1:1 Surfactant to Rapa, 10x dilution
[6] = 1:1 Surfactant to Rapa, 10x dilution, partition between supernatant and sediment
[7] = 10:1 Surfactant to Rapa (w/w), 6x dilution in water
[8] = 10:1 Surfactant to Rapa, 6x dilution
[9] = 1:10 Surfactant to Rapa (w/w), 100x dilution in water
[10] = 1:10 Surfactant to Rapa, 100x dilution

| Sediment wt [1, 4] [mg] | Cal. Rapa (Sediment) [1, 5] | Cal. Rapa (Supernate) [1, 5] [mg] | ratio super/sed [1, 6] | total (% original) [1, 5] [%] | Sediment wt [1, 7] [mg] | ratio super/sed [1, 8] | Cal. Rapa (Sediment) [1, 8] | Cal. Rapa (Supernate) [1, 8] [mg] | total (% of original) [1, 8] [%] | Sediment wt [1, 9] [mg] | ratio super/sed [1, 10] | Cal. Rapa (Sediment) [1, 10] | Cal. Rapa (Supernate) [1, 10] [mg] | total (% of original) [1, 10] [%] | Compound | also measured |
| --- | --- | --- | --- | --- | --- | --- | --- | --- | --- | --- | --- | --- | --- | --- | --- | --- |
| 2.28 | 1.9 | 0.59 | 0.31 | 113.2 | 1.9 | 1.42 | 0.85 | 1.21 | 110.2 |  |  |  |  |  | CCCCCCCCCCCCCC[N+](C)(C)CCCCCCCCCCCCCC.[Br-] [Dimethylditetradecylammonium bromide, Dimethylditetradecyl Ammonium bromide] |  |
| 3.72 | 1.24 | 0.3 | 0.24 | 72.6 | 5.11 | 0.46 | 1.1 | 0.51 | 84.3 | 6.5 | 0.21 | 5.36 | 1.15 | 66.2 | Poly-L-Arginine (average or nominal MW of about 5,000 to about 15,000 Da) [Poly Arginine 5,000-15,000] |  |
| 6.31 | 1.51 | 0.25 | 0.17 | 88.0 | 3.6 | 0.31 | 1.24 | 0.39 | 73.1 |  |  |  |  |  | CCCCCCCCCCCC[N+](CCCCCCCCCCCC)(CCCCCCCCCCCC)CCCCCCCCCCCC.[Br-] [Tetradodecylammoniumbromid, Tetradodecylammonium bromide] |  |
| 2.2 | 1.23 | 0.64 | 0.52 | 98.4 | 3.73 | 0.83 | 1.23 | 1.02 | 107.1 | 8.52 | 0.06 | 7.23 | 0.4 | 79.5 | CCCCCCCCCCCC[N+](C)(C)CCCCCCCCCCCC.[Br-] [DMAB, didodecyldimethylammonium bromide] |  |

More lines, now with the values behind:

| Compound | Sediment wt [1, 4] [mg] | Cal. Rapa (Sediment) [1, 5] | Cal. Rapa (Supernate) [1, 5] [mg] | ratio super/sed [1, 6] | total (% original) [1, 5] [%] | Sediment wt [1, 7] [mg] | ratio super/sed [1, 8] | Cal. Rapa (Sediment) [1, 8] | Cal. Rapa (Supernate) [1, 8] [mg] | total (% of original) [1, 8] [%] | Sediment wt [1, 9] [mg] | ratio super/sed [1, 10] | Cal. Rapa (Sediment) [1, 10] | Cal. Rapa (Supernate) [1, 10] [mg] | total (% of original) [1, 10] [%] | also measured |
| --- | --- | --- | --- | --- | --- | --- | --- | --- | --- | --- | --- | --- | --- | --- | --- | --- |
| CCCC[N+](CCCC)(CCCC)CCCC.[I-] [Tetrabutylammonium iodide] | 2.1 | 1.97 | 0.6 | 0.30 | 114.2 | 2.05 | 0.39 | 1.07 | 0.42 | 80.1 |  |  |  |  |  |  |
| Poly-L-Arginine (average or nominal MW of about 70,000 Da) [Poly Arginine 70,000] | 11.7 | 1.49 | 0.73 | 0.49 | 100.9 | 2.81 | 0.18 | 1.18 | 0.21 | 72.0 | 7.9 | 0.15 | 6.95 | 1.01 | 77.9 |  |
| Poly-L-Lysine (average or nominal MW of about 28,200 Da) [Poly Lysin 28,200] | 4.89 | 1.36 | 0.35 | 0.26 | 85.9 | 4.3 | 0.11 | 1.2 | 0.13 | 63.0 | 7.4 | 0.11 | 7 | 0.74 | 80.2 |  |
| CCCCCCCCCCCC[N+](C)(C)C.[Br-] [Dodecyltrimethylammonium Bromide, Dodecyltrimethyl Ammonium Bromide] | 1.99 | 1.65 | 0.5 | 0.30 | 108.6 | 2.56 | 0.65 | 1.2 | 0.78 | 87.6 | 7.7 | 0.20 | 6.6 | 1.33 | 81.9 |  |
| Poly-L-Lysine (average or nominal MW of about 67,000 Da) [Poly Lisine 66,700] | 1.85 | 1.43 | 0.33 | 0.23 | 93.6 | 2.9 | 0.10 | 1.2 | 0.12 | 55.2 |  |  |  |  |  |  |
| Poly Histidine | 7.21 | 1.61 | 0.32 | 0.20 | 92.8 | 2.85 | 0.30 | 0.94 | 0.28 | 65.6 | 7.9 | 0.18 | 7.06 | 1.29 | 78.8 |  |
| CCCCCCCCCCCCCCCC[N+](C)(C)CC.[Br-] [Ethylhexadecyldimethylammonium Bromide] | 3.85 | 1.37 | 0.33 | 0.24 | 89.5 | 3.21 | 31.50 | 0.04* | 1.26 | 59.6 | 8.6 | 0.15 | 6.86 | 1.05 | 80.2 |  |
| CO[C@H]1C[C@@H]2CC[C@@H](C)[C@@](O)(O2)C(=O)C(=O)N2CCCC[C@H]2C(=O)O[C@H]([C@H](C)C[C@@H]2CC[C@@H](O)[C@H](OC)C2)CC(=O)[C@H](C)/C=C(\C)[C@@H](O)[C@@H](OC)C(=O)[C@H](C)C[C@H](C)/C=C/C=C/C=C/1C [sirolimus] |  |  |  |  |  |  |  |  |  |  |  |  |  |  |  | concentration at 0 h (in vivo): 197000 ± 85300 ng/g; sirolimus removed from balloons before inflation ([2]; Study 1 balloons): 65.6±1.3%; average percent drug (sirolimus) lost ([2]; four Study 1 balloons left uninflated two minutes in rabbit aorta, exposed to blood flow, based on batch average UV-Vis): 65.6%; Total Sirolimus per Artery (Denuded Arteries, rabbit iliac, 0 h, artery exposed to blood flow 5 or 10 min, single arteries and Average): 7.36 µg and 4.62 µg and 5.75 µg and 4.46 µg and 3.92 µg and 4.27 µg; drug (sirolimus) transferred to artery (Study 1 balloons): 1-5%; sirolimus washed away into circulation (Study 1 balloons, 0 h): 5.4 ± 2.3 µg; Est. Total Sirolimus in Blood Normalized to Human ([3]; 6 hr, based on 5 L of blood in the average human): 0.08 ng/mL and 0.07 ng/mL and 0.06 ng/mL; Est. Total Sirolimus in Blood ([3]; 6 hr, based on 56 mL per kg in rabbits): 0.5 µg and 0.4 µg and 0.3 µg; time within which drug released from balloon and/or artery was cleared from the blood ([3]; rabbit, after balloon inflation): ≤ 24 h; concentration at 0 h ([3]; rabbit, blood, other: coated balloon catheters inflated in iliac arteries, rabbit blood, 0 Hr, two coated balloons per animal, single animals and Average, read-out: Post-Inflation Conc.): 8.35 ng/mL; concentration at 6 h ([3]; rabbit, blood, other: coated balloon catheters inflated in iliac arteries, rabbit blood, 6 hr, two coated balloons per animal, single animals and Average, read-out: Post-Inflation Conc.): 2.82 ng/mL; concentration at 6 h ([3]; rabbit, whole blood, other: inflation of drug-coated balloons in iliac arteries, Est. Total Sirolimus in Blood Normalized to Human, 6 hr, based on 5 L of blood in the average human): 0.1 ng/mL |
